In publication PMC12469358, “Synthesis of novel phenoxyacetohydrazide compounds and evaluation therapeutic potential exhibit as anti-inflammatory and anti-angiogenic” (PLOS One, 2025):
Converted amounts (≈) assume the structure as drawn. “Also recorded” adds a separate entry of the source. Like-named read-outs stand apart in the source and are kept apart here.

Experiments:
[1] = tested on: human red blood cell (HRBC) membrane; assay: Human red blood cell (HRBC) membrane stabilization assay; type: cell-based; settings: for IC50: Homo sapiens, Erythrocyte
Procedure: The human red blood cell (HRBC) membrane stabilization method was employed to evaluate the anti-inflammatory activity of the compounds, as previously described. For test the in vitro anti-inflammatory activity of synthesized compounds (6e-h), blood samples were collected from healthy volunteers who had not taken NSAIDs for 14 days. The blood was mixed with an equal volume of sterilized Alsever’s solution, centrifuged at 3000 rpm, and the packed cells were washed with isotonic saline (0.9% w/v NaCl). A 10% cell suspension was then prepared using isotonic saline. The test compounds were dissolved in DMSO to prepare solutions at concentrations of 50, 100, 150, 200, and 250 μg/ml. For each concentration, a mixture containing 1 ml of phosphate buffer, 2 ml of hypotonic saline, and 0.5 ml of the HRBC suspension was prepared. The samples were incubated at 37°C for 30 minutes and centrifuged at 3000 rpm for 20 minutes. The hemoglobin content in the supernatant was determined spectrophotometrically at 560 nm. Indomethacin at the same concentrations (50–250 μg/ml) was used as the reference standard, and a control sample was prepared without the test compounds. The percentage hemolysis was calculated by considering the hemolysis in the control group as 100%. The percentage of HRBC membrane stabilization or protection was determined using the following formula:
percent protection=100−((OD of drug treated sample/OD of control) ×100).

[2] = tested on: rVEGF165-induced angiogenesis in chick chorioallantoic membrane (CAM); assay: In vivo chorioallantoic membrane (CAM) assay; settings: for H&E staining: neovascular structures and inflammatory infiltration: Fig 23 legend, H&E staining of in vivo CAM
Procedure: The in vivo CAM assay was performed according to the standard protocol. All the eggs were wiped with 75% alcohol prior to incubation. Then the fertilized eggs were incubated at 37°C with 60% relative humidity. On the 11th day of incubation, all the eggs divided into three treatment groups contain minimum 6 eggs as mentioned below.
• Group I – Normal [PBS (Phosphate buffer saline) (10 mM Sodium phosphate mono basic+ 1.8 mM Sodium phosphate dibasic+140 mM sodium chloride, pH 7.4) alone] • Group II – Control [1µg of rVEGF165 alone] • Group III – 5 µg of 6e + 1 µg of rVEGF165.
A rectangular window was made in the egg shell and Whatman filter paper (3 mm diameter) containing with or without compound 6e (5 µg) was placed on the CAM and the window were sealed using sterile vegetable wrap. Windows were opened after 48h, i.e., on 13th day of incubation, observed by two independent observers and measured for change in the Micro Vessel Density (MVD) in the area beneath the cover slip and photographed using Sony steady shot DSC-W610 camera.

[3] = tested on: carrageenan-induced paw edema; assay: Carrageenan-induced paw edema; type: in vivo; settings: rat, 6e 25 mg/kg, 5 h after carrageenan injection
Text: Female Swiss albino rats were selected for the study to evaluate the anti-inflammatory effects of compound 6e against carrageenan-induced paw edema. The animals were divided randomly into four groups, with each group consisting of six experimental animals (n = 6): • Group 1: Normal animals (untreated). • Group 2: Control group (saline-treated). • Group 3: Positive control group (indomethacin-treated). • Group 4: Animals treated with compound 6e. Prior to the experiment, animals in Group 2 were administered saline (5 mL/kg), animals in Group 3 received the positive control indomethacin (10 mg/kg), and animals in Group 4 were treated with compound 6e (25 mg/kg). All animals were left undisturbed in their respective cages for 2 hours.

[4] = tested on: alkali burn-induced corneal neovascularization (CNV); assay: Alkali burn-induced corneal neovascularization; type: in vivo; settings: alkali-burnt cornea
Procedure: Corneal neovascularization (CNV) was induced through alkali injury following a standard protocol with minor modifications. Swiss albino rats were first examined to ensure the absence of ophthalmic diseases before the alkali burn procedure. The animals were divided into three groups, each comprising six animals (n = 6 per group):
• Group I: Normal, treated with phosphate-buffered saline (PBS). • Group II: Control group, treated with 1 µg of recombinant VEGF (rVEGF). • Group III: Treated group, receiving rVEGF165 ([…]) and compound 6e (5 µg/ml).
An alkali burn was induced in the right eye of animals in Groups II and III after administering general anesthesia via intraperitoneal injection of ketamine (1 ml/kg) and chlorpromazine (1 ml/kg). A 3-mm diameter piece of Whatman filter paper soaked in […] of 1 mol/L NaOH was applied to the center of the cornea for 30 seconds, followed by irrigation of the treated cornea with 60 ml of normal saline.
Group II animals were subsequently treated with 1 µg of rVEGF applied to the right eye. The extent of CNV was quantified through photographic documentation 48 hours after the alkali burn and rVEGF treatment. […] The inhibitory effect of compound 6e on neovascularization was evaluated through photographic documentation 24 hours after treatment with compound 6e.

[5] = tested on: tissue myeloperoxidase (MPO) activity in carrageenan-treated paws; assay: Tissue myeloperoxidase (MPO) activity assay; type: in vivo; settings: rat, 6e 25 mg/kg, 4 hours after carrageenan
Procedure: Rats were treated either with or without positive control (indomethacin at 10 mg/kg body weight) or compound 6e (25 mg/kg body weight) 2 hours prior to the injection of carrageenan into the right hind paw. The activity of tissue myeloperoxidase (MPO) was assessed 4 hours post-carrageenan injection. Tissue samples were collected and placed in 0.75 ml of 80 mM phosphate-buffered saline (PBS, pH 5.4) containing 0.5% hexadecyltrimethylammonium bromide (HTAB). The samples were homogenized for 45 seconds at 0°C using a homogenizer. The homogenate was transferred into microfuge tubes, and the homogenizer vessel was rinsed with an additional 0.75 ml of HTAB in PBS. The wash was combined with the homogenate to yield a total sample volume of 1.5 ml, which was then centrifuged at 12,000 × g at 4°C for 15 minutes. For the MPO assay, 30 μl of the resulting supernatant was added to 96-well microtiter plates. To each well, 200 μl of a reaction mixture was added, consisting of 100 μl of 80 mM PBS (pH 5.4), 85 μl of 0.22 M PBS (pH 5.4), and 15 μl of 0.017% hydrogen peroxide. […] Enzyme activity was determined spectrophotometrically by measuring absorbance at 630 nm using a plate reader. Results were expressed as MPO activity per milligram of tissue (MOD/mg tissue). […] All samples were measured in six times (n = 6 technical replicates) for statistical accuracy.

[6] = tested on: rVEGF165-induced angiogenesis in CAM explants; assay: Ex vivo CAM assay; type: in vivo, chick
[7] = Table 6 series 6a-h, read-out: HRBC membrane stabilization “IC50” Value
[8] = Table 7, 50-250 µg concentration series, comparison with indomethacin, read-out: “IC50”
[9] = Table 7, 50-250 µg concentration series, comparison with indomethacin

O=C(COc1ccc(Cl)cc1)NNC(=O)C1CN(Cc2ccccc2)CCO1 (centres unmarked) [6a, 4-Benzyl-N’-(2-(4-chlorophenoxy)acetyl)morpholine-2-carbohydrazide]
IC50 [1, 7]: 311 µg/mL (≈ 770 µM)

O=C(COc1ccc(Br)cc1)NNC(=O)C1CN(Cc2ccccc2)CCO1 (centres unmarked) [6b, 4-Benzyl-N’-(2-(4-bromophenoxy)acetyl)morpholine-2-carbohydrazide]
IC50 [1, 7]: 222 µg/mL (≈ 495 µM)

Cc1ccccc1OCC(=O)NNC(=O)C1CN(Cc2ccccc2)CCO1 (centres unmarked) [6c, 4-Benzyl-N’-(2-(o-tolyloxy)acetyl)morpholine-2-carbohydrazide]
IC50 [1, 7]: 289 µg/mL (≈ 754 µM)

Cc1ccc(OCC(=O)NNC(=O)C2CN(Cc3ccccc3)CCO2)c(C)c1 (centres unmarked) [6d, 4-Benzyl-N’-(2-(2,4-dimethylphenoxy)acetyl)morpholine-2-carbohydrazide]
IC50 [1, 7]: 199 µg/mL (≈ 501 µM)

O=C(CCCOc1ccc(F)cc1)NNC(=O)C1CN(Cc2ccccc2)CCO1 (centres unmarked) [6e, 4-Benzyl-N’-(4-(4-fluorophenoxy)butanoyl)morpholine-2-carbohydrazide]
rVEGF165-induced angiogenic response / neovascularization, in vivo CAM ([2]; 5 µg 6e + 1 µg rVEGF165, 48 h): inhibited this rVEGF165-induced angiogenic response in a dose-dependent manner; also recorded: Marked suppression of neovascularization | H&E staining: neovascular structures and inflammatory infiltration [2]: minimal inflammatory infiltration and absence of neovessel | Total vessel length of in vivo CAM ([2]; versus control, n = 6): A significant reduction in vessel length | % Inhibition ([1]; 50 µg): 28.88% | % Inhibition ([1]; 100 µg): 34.13% | % Inhibition ([1]; 150 µg): 42.02% | % Inhibition ([1]; 200 µg): 59.99% | % Inhibition ([1]; 250 µg): 67.86% | IC50 [1, 7]: 155 µg/mL (≈ 373 µM) | IC50 [1, 8]: 164 µg/mL (≈ 395 µM) | “IC50” [1, 9]: 165.988 µg/mL | paw swelling ratio (percent increase of paw volume) [3]: statistically significant reduction in the paw swelling ratio; also recorded: significantly inhibited the ratio of paw swelling | total vessel length in the rat cornea [4]: diminution in the total vessel length; also recorded: reduction in total vessel length | corneal neovascularization (CNV) ([4]; rat, 6e 5 µg with rVEGF165 10 µg): significant decrease in CNV | MPO activity in carrageenan-treated paws [5]: markedly prevented the elevation of MPO activity | VEGF-induced angiogenic response, ex vivo CAM ([6]; co-administration with rVEGF165): Marked suppression of new blood vessel formation; also recorded: effectively inhibited this VEGF-induced angiogenic response in a dose-dependent manner | Total vessel length of ex-vivo CAM ([6]; rVEGF165-induced increase, n = 6): significantly attenuated

CC(C)c1ccc(OCC(=O)NNC(=O)C2CN(Cc3ccccc3)CCO2)c(C(C)C)c1 (centres unmarked) [6f, 4-Benzyl-N’-(2-(2,4-diisopropylphenoxy)acetyl)morpholine-2-carbohydrazide]
IC50 [1, 7]: 301 µg/mL (≈ 664 µM)

O=C(CCCOc1ccc(Br)cc1)NNC(=O)C1CN(Cc2ccccc2)CCO1 (centres unmarked) [6g, 4-Benzyl-N’-(4-(4-bromophenoxy)butanoyl)morpholine-2-carbohydrazide]
IC50 [1, 7]: 279 µg/mL (≈ 586 µM)

O=C(CCCOc1cccc([N+](=O)[O-])c1)NNC(=O)C1CN(Cc2ccccc2)CCO1 (centres unmarked) [6h, 4-Benzyl-N’-(4-(3-nitrophenoxy)butanoyl)morpholine-2-carbohydrazide]
IC50 [1, 7]: 255 µg/mL (≈ 576 µM)

COc1ccc2c(c1)c(CC(=O)O)c(C)n2C(=O)c1ccc(Cl)cc1 [Indomethacin, reference compound]
H&E staining: neovascular structures and inflammatory infiltration [2]: Moderate reduction in neovascular structures | % Inhibition ([1]; 50 µg): 33.10% | % Inhibition ([1]; 100 µg): 46.11% | % Inhibition ([1]; 150 µg): 53.99% | % Inhibition ([1]; 200 µg): 64.98% | % Inhibition ([1]; 250 µg): 76.94% | IC50 [1, 8]: 122 µg/mL (≈ 340 µM) | “IC50” [1, 9]: 122.01 µg/mL
